The subject of series [1] is ND7 cells. Put plainly: X-gal staining, cationic lipid variations in ND7 cells. In kind it is cell-based, rat/mouse. Conditions: ND7, Liposome:DNA 3:1 w/w. As for the experimental part: We determined whether LMD complexes could be bettered by incorporating poly cationic cholesterol lipids (WO 97/45442). CDAN (B198), ACHx (CJE52) and CTAP (B232) (FIG. 9) were used to make cationic liposomes in place of DC-Chol. Each cationic liposome system used was composed of 60 mol % of cationic lipid and 40 mol % of DOPE and prepared as described in Example 4. The following different LMD complex systems were prepared and compared: LMD(DC-Chol), LMD(B198), LMD(CJE52), and LMD(B232). All LMD systems were prepared with cationic liposomes (total lipid 20 μmol) and 0.6 mg of Mu1 peptide per 1.0 mg of DNA (pCMVβ), as described above.
Liposome:DNA (LD) complex mixtures (lipoplexes) were prepared for control experiments with a Liposome:DNA ratio of 3:1 (w/w), the optimal composition for transfection of ND7 cells.
Transfection in ND7 cells; ND7 cells were seeded in NGM (with 10% serum) at a density of approximately 4×10^4 cells per well, in a 24-well culture plate. After 24 h, cells were washed by brief exposure to NGM (serum free) and then treated with solutions containing LMD or LD complexes, prediluted with NGM (serum free) (final DNA concentration 2.5 μg/ml in all cases), for 1 h. Cells were then washed again and incubated for a further 48 h prior to processing for histochemical staining with X-gal. The number of cells stained blue were counted under an inverted microscope.

Another series concerns plasmid DNA (pCMVβ). Kind of series: gel retardation assay (DNA binding analysis). The protocol: One microgram of pCMVβ was incubated with 0 μg (lane 2), 5 μg (lane 3), 10 μg (lane 4), 15 μg (lane 5), 20 μg (lane 6), 25 μg (lane 7) and 30 μg (lane 8) of BSA for 10 minutes at room temperature in 1× HBS. Samples were then analyzed on a 1% agarose gel for altered mobility.
When ratios of 0.5 (w/w) or greater were used, however, migration of both forms of pDNA was severely retarded.
C). The Polyomavirus protein Vp1 was much less efficient at preventing pDNA migration. pCMVβ (1 μg) was incubated with 2 μg (lane 2), 4 μg (lane 3), 6 μg (lane 4), 8 μg (lane 5), 16 μg (lane 6), 32 μg (lane 7) and 0 μg (lane 8) Vp1. Only ratios of 6 or higher (protein: pDNA, w/w) caused significant retardation of supercoiled pDNA (lane 6, lower band). Also, not until a ratio of 32 (w/w) was used was there any effect on relaxed pDNA (lane 7, upper band). In all gels lane 1 corresponds to 1 Kb DNA marker (BRL).
The purified peptides were reconstituted in sterile distilled H2O at 3 mg/mL. Peptide and pDNA were complexed in 20 μL HEPES buffered saline (137 mM NaCl, 5 mM KCl, 0.75 mM Na2HPO4, 19 mM HEPES, pH 7.4) for 20 minutes at room temperature. Peptide: pDNA complexes were subsequently analyzed by agarose gel electrophoresis (1%). Control incubations for general macromolecular pDNA interactions were performed with varying amounts of molecular biology grade purified bovine serum albumin (Sigma).
Varying amounts of purified peptide were incubated at room temperature in HBS for approximately 10 minutes and then analyzed by agarose gel electrophoresis. Without the addition of peptide, supercoiled and relaxed circular plasmid DNA (pDNA) migrated in the expected manner (FIG. 1, lane 8).

Series [2] deals with ND7 cells. Kind of series: β-galactosidase reporter gene assay, transfection of undifferentiated ND7 cells. In kind it is cell-based, rat/mouse. Conditions: peptide with cationic liposome, pCMVβ:liposome 1:3 w/w. The protocol:
ND7 cells were seeded at a density of 5 ×10^4 cells/well in 24 well culture dishes 24 hrs prior to transfection. Immediately prior to transfection, cells were washed in serum-free media. Complexes were formed by incubating pCMVβ with Mu1 prior to the addition of the cationic liposome DC-Chol/DOPE. In each case 1 μg pCMVβ was complexed with 0.6, 6, 12, and 21 μg Mu1 peptide. Each of these combinations was then complexed with 3, 4 and 6 μg DC-Chol/DOPE. ND7 cells were exposed to transfection complexes for 2 hours then maintained at 37° C., 5% CO2 for another 24 hrs before being harvested and processed for β-galactosidase enzyme assay. Numbers represent means±SD, n=3.
pCMVβ plasmid DNA was complexed to various amounts of polycationic peptide and then mixed with cationic liposome at a ratio of 1:3 (pCMVβ:liposome; w/w). After being washed briefly in serum free media, ND7 cells were exposed to the […] complexes for two hours and then returned to serum containing media Twenty-four hours later the cells were harvested and processed for β-galactosidase enzyme assay. Each condition was performed in triplicate and each experiment replicated three times. Numbers represent means±SD.
ND7s are a well-characterized cell line derived from the fusion of a neuroblastoma N18Tg2) with neonatal rat sensory neurons ^28. The cell line was maintained in normal growth media (NGM) (Leibovitz's L-15 media (BRL) enriched with 10% Fetal bovine serum (BRL), 4 g/L glucose, 4 g/L sodium bicarbonate (BRL), 100 IU/mL penicillin/streptomycin (BRL)) at 37° C. and 5% CO2. The cells were plated onto 24 well plates (Costar) at a density that produced 70% confluence after 24 hours.
Since initial experiments determined that the presence of fetal bovine serum inhibited transfection of ND7 cells serum-free differentiation media was used for all transfections. Various amounts of DNA and liposome were placed in the bottom of a 7 mL sterile Bijou container (Bibby Sterilin Ltd., Staffordshire, U.K.), but not in contact with each other.
DNA and liposomes were combined by the addition of 400 μL serum-free differentiation media and gentle shaking. The DNA: liposome mixture was incubated at room temperature for 20 to 30 minutes before being applied to the cells. The DNA/liposome mixture was then applied to the cells and incubated at 37° C., 5% CO2 for 2 hours after which this media was replaced with complete media Twenty four to 48 hours later the cells were fixed and processed for X-gal histochemistry as described ^31 or harvested for β-galactosidase enzyme assays (Promega Corp.).
Transfection complexes including the test peptides were generated in the following manner. Various amounts of peptide was placed in the bottom of sterile polystyrene containers alongside, but not in contact with 1 μg·pCMVβ and mixed by adding 400 μl serum free NGM media The complexes were incubated at room temperature for 10 minutes after which DC-Chol/DOPE was added. The pDNA/peptide/liposome complex was further incubated at room temperature for 20 minutes and then administered to cells as above.
We examined the ability of Mu1 and Vp1 to enhance the transfection of a neuronal cell line by cationic liposomes using a β-Galactosidase reporter gene assay. ND7 cells were transfected with pCMVβ complexed to varying amounts of peptide and DC-Chol/DOPE. We have previously shown that the cationic liposome DC-Chol/DOPE is capable of efficiently transfecting the neuronally derived ND7 cell line ^31. […] Temporally, maximal levels of transgene expression are obtained between 48-60 hours post transfection. Therefore, in order to maximize the chance of detecting improvements in transfection we performed all our assays within 12-20 hours of transfection at a time when levels of reporter gene expression were lower. Previously we found a pDNA: liposome ratio of 1:3 (w/w) optimal for transfections in ND7 cells ^31. […]

The nature of series [3]: charge ratios worked out from the sequence. Type of series: physicochemical. From the text:
Mu1 is a polycationic peptide comprised of 19 amino acids associated with the core complex of Adenovirus (Table 1) ^27, 32. We compared the DNA binding capacity of Mu1 with the mouse polyomavirus major capsid protein Vp1 by interaction with plasmid DNA in a gel retardation assay. Vp1 is a 19 amino acid peptide that contains a nuclear localization signal ^26 and contains fewer positively charged amino acids than Mu1. It was therefore predicted to have a lower DNA binding capacity.
The success of non-viral gene delivery vehicles as viable alternatives to virus vector-based systems is dependent on the development of complexes with higher and longer lasting transfection efficiencies. Since the initial identification of cationic liposomes as vehicles for the transfer of genetic material into cells there has been a large push to develop better cationic liposome formulations ^5, 7. Most attempts at improving cationic liposomes have been based on structural modifications to the molecule itself ^30. Novel formulations have been developed which have improved transfection efficiencies ^30. However, particular cell types behave differently in regards to cationic liposomal transfection. For example, we found the polypeptide Mu1 better at enhancing cationic liposome mediated transfection than Vp1. This was probably due to Mu1's greater charge ratio. While both peptides are approximately the same molecular weight, the overall charge ratio of Mu1 was more than twice that of Vp1 (Table 1). […] While a small shift in pDNA mobility was detected when 0.25 μg Mu1 was complexed to 1 μg pCMVβ, almost all of the plasmid was retained near the loading well following addition of 0.5 μg Mu1 (FIG. 1). A 0.5/1.0 (w/w) ratio of Mu1 to pCMVβ corresponds to a 1000/1 molar ratio. Each molecule of Mu1 contains 12 residues that could potentially carry a positive charge. The theoretical charge ratio of Mu1 to pCMVβ would then be 1.6 (12000 Mu1 cations to 7500 pCMVβ anions).

For a further series, the system named is HeLa cells. Put plainly: β-galactosidase assay, alternative cationic peptides in HeLa cells. Conditions: DC-Chol:DOPE liposome:peptide:DNA 12:0.6:1, 30 min, DNA 1.0 μg/ml. Type of series: cell-based, human. As for the experimental part:
In order to examine the effects of various alternative cationic peptides on transfection activities, a series of liposome:cationic peptide:DNA complexes were prepared and their relative transfection abilities analysed in vitro. The peptides used were poly-lysine hydrochloride (average molecular weight 3970, Sigma), poly arginine hydrochloride (average molecular weight 11800, Sigma) a peptide derived from protein V, pV (p5, sequence shown below), a peptide analogue of Mu1 (V, sequence shown below) and Mu1 peptide itself. The p5 peptide and V peptide were synthesized using the same solid-phase peptide synthesis methodology as was used to prepare Mu1 peptide.
Each peptide was combined with cationic liposome (DC-Chol:DOPE 3:2 m/m) and DNA (pCMVβ) in the liposome:peptide:DNA ratio of 12:0.6:1 (w/w/w) as described in Example 4. The transfection activities were examined using HeLa cells (human epithelial cells). The cells were seeded at an approximate density of 5×10^4 per well in a 24-well culture plate in DMEM supplemented with 10% FCS and grown for 24 h in the presence of 5% CO2 at 37° C. Cells were washed by brief exposure to DMEM and then treated with solutions containing LMD or LD complexes, prediluted with OPTIMEM (Gibco) (final DNA concentration 1.0 μg/ml in all cases), for 30 min. Cells were then washed again and incubated for a further 48 h in DMEM supplemented with 10% FCS prior to harvesting. The level of β-galactosidase enzyme activity was determined with a standard assay kit (chemiluminescent, Roche).

Data on five compounds can be found in patent US20030153081A1, “Viral core protein-cationic lipid-nucleic acid-delivery complexes” (priority 1999, published 2003).

Consider `CC(C)CCCC(C)C1CCC2C3CC=C4CC(OC(=O)NCCNCCCNCCN)CCC4(C)C3CCC12C` (stereo not drawn) [B198], for which the “rank order in transfection efficiency, corresponding LD systems” value with ND7 cells [1] was “B198>DC-Chol>B232”.
Same read-out and setting: the result for `CC(C)CCC[C@@H](C)[C@H]1CC[C@H]2[C@@H]3CC=C4C[C@@H](OC(=O)NCCN(C)C)CC[C@]4(C)[C@H]3CC[C@]12C` [DC-Chol, 3β[N-(N′,N′-dimethylaminoethane)carbamoyl] cholesterol, reference compound] reads “B198>DC-Chol>B232”.
As to “NH2—Met—Ala—Pro—Lys—Arg—Lys—Ser—Gly—Val—Ser—Lys—Cys—Glu—Thr—Lys—Cys—Thr—Pro—Pro—OH (H-MAPKRKSGVSKCETKCTPP-OH; cysteine pairing not given here) [Vp1, 19 amino acid peptide of mouse polyomavirus major capsid protein Vp1, contains a nuclear localization signal, reference compound]”, in the series with plasmid DNA (pCMVβ) (1 μg pCMVβ, 1% agarose gel), the “ratio protein:pDNA at which there was first any effect on relaxed pDNA” value came out at 32 w/w and the “ratio protein:pDNA causing significant retardation of supercoiled pDNA” value is given as at least 6 w/w. Also, the “effect on electrophoretic mobility of plasmid DNA” value in the series with plasmid DNA (pCMVβ) (pDNA:protein ratios up to 1:8 (w/w)) is “no effect on the electrophoretic mobility”. For the same compound, the “improvement on transfection efficiency” value with ND7 cells [2] is recorded as “no improvement on transfection efficiency”. In series [3], the Charge/AA ratio is recorded as 0.26.
In the case of “RPRRRATTRRRTTTGTRRRRRRR [p5, peptide derived from protein V, pV]”, the “transfection activity compared to poly lysine and poly arginine complexes” value with HeLa cells is given as “excellent transfection activity”.
“VRRVHHRRRRVSHRRVRGG [peptide analogue of Mu1]”: the “transfection activity compared to poly lysine and poly arginine complexes” value in the series on HeLa cells is reported as “excellent transfection activity”.
